Source: US12208181B2, “Medication infusion components and systems” (MEDTRONIC MINIMED, INC., priority 2017, dated 2025)
Entries after “also recorded” stand apart in the source; their conditions may differ.

Experiments:
[1] = system: diabetic porcine model; assay: Insulin infusion site-loss study in diabetic porcine model (extended wear infusion set); format: in vivo, pig; settings: for Effect on site-loss compared with control: diabetic pigs, agent given with insulin (Humalog) infusion, control without agent; for No site loss for: Sof-Set
Experimental: The objectives of this study include duplicating the site-loss phenomena observed in previous studies using a diabetic porcine model. Additionally, various infusion set configurations are evaluated for reducing site-loss and extending infusion set wear. Further, site-loss is mitigated using a response-inhibiting agent and/or infusion pump to increase reliability of wear for 3 days and extend infusion set wear beyond 3 days.
The objectives of this study include: duplicating the site-loss phenomena observed in previous studies using the diabetic porcine model; using the established diabetic porcine model to evaluate the effects of various infusion set designs on infusion site-loss; and testing if site-loss can be mitigated by direct pump infusing of immunosuppressant/anti-inflammatory drugs, and/or by modifying infusion set by drug coating.
This study is designed so that each set (inserted under anesthesia) is to be worn for 1 week unless there was set failure/dislodge. Glucose is monitored by a blood glucose meter and Enlite™ sensor. The criteria for determining site loss is that blood glucose is greater than 350 mg/dl and fails to decrease following an insulin dose correction. During biopsy pumps are removed but the cannula is maintained in-situ. Site skin is examined for edema/erythema (swell/redness) (see FIG. 8).

[2] = system: diabetic porcine model; assay: Local toxicity observation in diabetic porcine model; settings: prefilled heparin/insulin, Sof-Set; heparin 100-800 U/mL insulin (U100)
[3] = system: diabetic pig; assay: Histopathology of infusion sites (inflammation at catheter tip and body); format: in vivo
Excerpt: FIG. 2A is a series of histologic evaluations at the catheter tip showing the inflammatory response (score), and size of the area with tissue reaction. “*” indicates the catheter location and “F” indicates normal fat. […] FIG. 2B is a series of graphs illustrating the inflammation at the catheter tip for diabetic and non-diabetic pigs. Localized inflammation loosely correlated with site-loss.
FIG. 2C is a series of graphs illustrating the predominate inflammation cells at the catheter tip and catheter body (qualitative). To isolate the main inflammation contributors, a catheter, a catheter infused with insulin (Humalog™), and a catheter infused with placebo were placed on a diabetic pig at the same time.
FIG. 2D is a series of graphs illustrating the predominate inflammation cells at the catheter tip and catheter body of an insulin injection port (i-Port™). To isolate the main inflammation contributors, a catheter, a catheter infused with insulin, and a catheter infused with placebo were placed on a diabetic pig. Compared to continuous infusion, the giant cells are missing in the i-Port™ study. […] As observed by the pathologist, the pigs may have developed a hypersensitivity to the Humalog™ and such a reaction would contribute to the inflammation seen (the degree that hypersensitivity is influencing the inflammation is unclear but it could be one of the main drivers).

[4] = system: diabetic Yucatan pigs; assay: Site-loss evaluation during CSII (Example 1); format: in vivo
Excerpt: (§1) The goal of studying insulin infusion site-loss using a diabetic porcine model is to establish the methods and animal model necessary to reproduce the phenomenon of site-loss in Continuous Subcutaneous Insulin Infusion (CSII). Methodologies are established for evaluating infusion sites in healthy and diabetic pigs, including device placement and animal management, glucose monitoring, insulin detection, pharmacokinetics, site harvesting, and pathological evaluation. The host response to implanted functional devices is assessed in healthy and diabetic pigs. Parameters that are believed to impact site-loss are varied until site-loss is observed.
Site-loss was evaluated using a criteria of a prolonged high blood glucose level (greater than 350 mg/dl) as well as being ineffectively controlled by increasing insulin basal/bolus rate. Site-loss observed was pig dependent, sometimes site-dependent. […] The other two pigs (#341425 and #341426) had no site-loss in 7 days if a proper site was located. In general, the pigs with observed site-loss were less responsive to a Humalog™ dose. Histologically, the predominant tissue response was inflammation and, with longer infusion, fibrosis. Inflammation scores trended to be of higher grade in diabetic pigs compared to normal pigs, with a larger inflammation area around the catheter tip. […]

[5] = system: normal and diabetic Yucatan pigs; assay: PK/PD study: blood glucose response to Humalog; format: in vivo
Excerpt: as §1

[6] = diabetic pigs, compared to catheter and placebo

dextran
Infusion site active ([1]; Sof-Set with dextran dosed insulin (FIG. 22)): up to 6 days | Effect on site-loss compared with control [1]: performing significantly better than the control | Efficacy in extending infusion set wear / site-loss mitigation (in words) ([1]; diabetic porcine model): efficacy of dextran in extending infusion set wear

C[C@H]1C[C@H]2[C@@H]3CCC4=CC(=O)C=C[C@]4(C)[C@@]3(F)[C@@H](O)C[C@]2(C)[C@@]1(O)C(=O)COP(=O)([O-])[O-].[Na+].[Na+] [BSP, Betamethasone Sodium phosphate]
Effect on site-loss compared with control [1]: performing significantly worse than the control

heparin
Local toxicity [2]: No local toxicity was observed | Infusion site active ([1]; Sof-Set with heparin dosed insulin (FIGS. 17, 18)): up to 13 days | Site-loss (glucose monitoring) ([1]; U100 Humalog with heparin sodium, actual 3.55 mg/mL or 685 U/mL, continuous infusion, pigs IM3 and IM4): > 6 days | Effect on site-loss compared with control [1]: performing significantly better than the control | No site loss for ([1]; prefilled heparin/insulin, heparin 100-800 U/mL insulin (U100)): greater than 13 days

CO[C@H]1C[C@@H]2CC[C@@H](C)[C@@](O)(O2)C(=O)C(=O)N2CCCC[C@H]2C(=O)O[C@H]([C@H](C)C[C@@H]2CC[C@@H](O)[C@H](OC)C2)CC(=O)[C@H](C)/C=C(\C)[C@@H](O)[C@@H](OC)C(=O)[C@H](C)C[C@H](C)/C=C/C=C/C=C/1C [rapamycin]
Effect on Site-Loss: site-loss after / duration of wear ([1]; 1 pig using Sof-Set, rapamycin later found degraded in solution after use): 5 days | Signs of improvement: recovery after ([1]; rapamycin dosed with Humalog): around 6 days | No site loss for ([1]; rapamycin spiked in insulin, around 0.6 μg/day): more than 6 days

C[C@@H]1C[C@H]2[C@@H]3CCC4=CC(=O)C=C[C@]4(C)[C@@]3(F)[C@@H](O)C[C@]2(C)[C@@]1(O)C(=O)COP(=O)(O)O [DXP, Dexamethasone Phosphate]
Effect on site-loss compared with control [1]: performing significantly worse than the control

Insulin lispro [Humalog]
Order of evaluated inflammation scores ([3]; catheter, catheter infused with insulin (Humalog), catheter infused with placebo on one diabetic pig): insulin≥placebo≥catheter; also recorded: insulin≥placebo≥cannula | Localized inflammation [3, 6]: associated with increased localized inflammation | Localized tissue fibrosis [3, 6]: main contributor to localized tissue fibrosis | Site-loss observed at ([4]; pigs #341423 and #341424, blood glucose >350 mg/dl criterion): approximately 3 days | No site-loss in ([4]; pigs #341425 and #341426, if a proper site was located): > 7 days | Blood glucose lowering [5]: effectively lower blood glucose level
